Measured values taken from patent US11661396B2, “Crystalline forms of zuclomiphene citrate” (Apotex Inc., priority 2020, dated 2023).
Counter-ions that a name gives are not always drawn.

How the values were obtained:
[1] = tested on: hot flashes in men with prostate cancer on androgen deprivation therapy; conditions: 50 mg zuclomiphene citrate, interim Phase 2 clinical trial results; cited from earlier work
[2] = PXRD studies of capped and uncapped samples maintained in a 40° C./75% RH stability chamber; type: physicochemical
Method: Zuclomiphene citrate Form APO-1 can be characterized by a PXRD diffractogram comprising, among other peaks, characteristic peaks, expressed in degrees 2θ (±0.2°), at 8.8°, 9.6° and 11.7°. Preferably, the PXRD diffractogram further comprises at least three peaks, expressed in degrees 2θ (±0.2°), selected from the group consisting of 10.9°, 12.4°, 14.7°, 14.9°, 17.3°, 17.8°, 18.6°, 19.9°, 20.5°, 23.6° and 25.4°. More preferably, the PXRD diffractogram further comprises peaks, expressed in degrees 2θ (±) 0.2°, at 10.9°, 12.4°, 14.7°, 14.9°, 17.3°, 17.8°, 18.6°, 19.9°, 20.5°, 23.6° and 25.4°.
Zuclomiphene citrate Form APO-III can be characterized by a PXRD diffractogram comprising, among other peaks, characteristic peaks, expressed in degrees 2θ (±0.2°), at 8.7°, 9.8° and 10.5°. Preferably, the PXRD diffractogram further comprises at least three peaks, expressed in degrees 2θ (±0.2°), selected from the group consisting of 11.6°, 12.3°, 15.3°, 16.9°, 18.0°, 18.6°, 19.4°, 20.4°, 21.0° and 24.5°. More preferably, the PXRD diffractogram further comprises peaks, expressed in degrees 2θ (±0.2°), at 11.6°, 12.3°, 15.3°, 16.9°, 18.0°, 18.6°, 19.4°, 20.4°, 21.0° and 24.5°. […]
PXRD diffractograms were recorded on a Bruker D8 Discover powder X-ray diffractometer (Bruker-AXS, Karlsruhe, Germany). […] Raw data were evaluated using the program EVA (Bruker-AXS, Karlsruhe, Germany).

[3] = Thermodynamic stability of the crystalline form; type: physicochemical
Excerpt: Zuclomiphene citrate Form APO-IV can be prepared by gradual addition of a solution of citric acid in a suitable solvent, preferably an alcohol or ketone solvent such as methanol or acetone, to a solution of zuclomiphene free base in a suitable solvent, preferably an alcohol solvent such as 2-methyl-1-propanol or 1-butanol, more preferably an ester solvent, such as ethyl acetate. Preferably, the solution of zuclomiphene free base is heated to an elevated temperature prior to addition of the citric acid solution, preferably in the range of about 50° C. to about 70° C. Following addition, the resulting mixture is preferably charged with Form APO-IV seeds and maintained at elevated temperature for a time (′aged), preferably in the range of about 16 hours to about 4 days, more preferably in the range of about 16 hours to about 48 hours. Following aging, the resulting mixture is preferably cooled to a temperature in the range of about 0° C. to about 35° C., most preferably room temperature, prior to isolation of the solid by filtration and drying, if necessary. Drying can be conducted in vacuo, preferably at a temperature in the range of about 50° C. to about 70° C., preferably for about 18 hours to about 3 days.

## CCN(CC)CCOc1ccc(/C(=C(\Cl)c2ccccc2)c2ccccc2)cc1 [zuclomiphene citrate, 2-[4-[(Z)-2-chloro-1,2-diphenylethenyl]phenoxy]-N,N-diethylethanamine]
[1]
  decrease in moderate to severe hot flashes from baseline: statistically significant decrease

## CCN(CC)CCOc1ccc(/C(=C(\Cl)c2ccccc2)c2ccccc2)cc1 [Form APO-III, zuclomiphene citrate]
[2]; at least 8 weeks
  change in the crystalline form (PXRD): no change in the crystalline form occurred

## CCN(CC)CCOc1ccc(/C(=C(\Cl)c2ccccc2)c2ccccc2)cc1 [Form APO-I, zuclomiphene citrate]
[2]; at least 4 weeks
  change in the crystalline form (PXRD): no change in the crystalline form occurred

## CCN(CC)CCOc1ccc(/C(=C(\Cl)c2ccccc2)c2ccccc2)cc1 [Form APO-IV, zuclomiphene citrate]
[3]
  thermodynamic stability: thermodynamically stable
